The values that follow come from patent publication US20090214529A9, “KINESIN INHIBITORS” (TaiGen Biotechnology Co., Ltd., priority 2007, published 2009).

Molecules are shown by their SMILES. Some results are limits rather than exact numbers.

The assay concerns tumor cell. In words: Cytotoxicity assay (MTS). The format is cell-based. The note with it: 72 h; incubation for three days; read-out: IC50, tumor cell growth inhibition (MTS). The protocol:
The efficacy of a test compound in inhibiting tumor cell growth was analyzed using a MTS assay. The MTS assay is a calorimetric method for the determination of viable cells in proliferation by using a tetrazolium compound (3-(4,5-dimethylthiazol-2-yl)-5-(3-[…])-2-(4-sulfophenyl)-2H-tetrazolium, inner salt; MTS) and an electron-coupling agent (phenazine methosulfate; PMS). The MTS reagent is converted by dehydrogenase enzymes in metabolically active cells into a formazan that is soluble in a tissue culture medium.
In this assay, tumor cell suspensions (30 μl/well) were seeded into 384-well flat-bottomed tissue culture plates at an appropriate density overnight. A fresh medium (3 μl/well) containing varying concentrations of a test compound or vehicle was added to the culture followed by incubation for three days. At the end of the incubation, all plates were processed simultaneously as follows: The culture medium was aspirated, a MTS cell proliferation assay (Promega) solution (30 μl/well) was added, and the plates were incubated at 37° C. for about 2 hours. Absorbance (a parameter proportional to the cell mass) was measured at 490 nm using a Multiskan (Thermo Electron Corporation, Waltham, Mass.). Inhibition effects were expressed as corrected T/C values for each test compound according to the following equation:
T/C=(T−Blank)/(C−Blank)×100(%),
where T is the mean absorbance of the treated cells, C is the mean absorbance of the controls, and Blank is the mean absorbance of the cell free well.
In the case of `Cc1ccc(C(=O)N(CCCN)C(c2nc3cc4[nH]c(Br)cc4cc3c(=O)n2Cc2cccs2)C(C)C)cc1` (stereo not shown) [Compound 1], the IC50 is less than 30 µM.
As for `Cc1ccc(C(=O)N(CCCN)C(c2nc3cc4[nH]ccc4cc3c(=O)n2Cc2cccs2)C(C)C)cc1` (stereo not shown) [Compound 2], the figure is less than 30 µM.
For `Cc1ccc(C(=O)N(CCCN)C(c2nc3cc4ccccc4cc3c(=O)n2Cc2ccccc2)C(C)C)cc1` (stereo not shown) [Compound 3], the IC50 is less than 30 µM.
`Cc1ccc(C(=O)N(CCCN)C(c2nc3c(Br)c4ccccc4cc3c(=O)n2Cc2ccccc2)C(C)C)cc1` (stereo not shown) [Compound 4]: the IC50 is less than 30 µM.
As to `Cc1ccc(C(=O)N(CCCN)C(c2nc3cc4ccccc4cc3c(=O)n2Cc2ccc(Cl)s2)C(C)C)cc1` (stereo not shown) [Compound 5], the 50% inhibitory concentration (IC50) is less than 30 µM.
Take `Cc1ccc(C(=O)N(CCCN)C(c2nc3c(Br)c4ccccc4cc3c(=O)n2Cc2ccc(Cl)s2)C(C)C)cc1` (stereo not shown) [Compound 6]: the IC50 is less than 30 µM.
`Cc1ccc(CN(CCCN)C(c2nc3cc4ccccc4cc3c(=O)n2Cc2ccccc2)C(C)C)cc1` (stereo not shown) [Compound 7]: the IC50 was less than 30 µM.
On to `Cc1ccc(C(=O)N(CCCN)C(c2nc3c(C#N)c4ccccc4cc3c(=O)n2Cc2ccc(Cl)s2)C(C)C)cc1` (stereo not shown) [Compound 8], for which the IC50 was less than 30 µM.
On to `Cc1ccc(C(=O)N(CCCN)C(c2nc3c(I)c4ccccc4cc3c(=O)n2Cc2ccccc2)C(C)C)cc1` (stereo not shown) [Compound 9], for which the IC50 is less than 30 µM.
As for `Cc1ccc(C(=O)N(CCCN)C(c2nc3nc4ccccc4nc3c(=O)n2Cc2ccccc2)C(C)C)cc1` (stereo not shown) [Compound 10], the figure is less than 30 µM; as for `CCC(c1nc2nc3ccccc3cc2c(=O)n1Cc1ccccc1)N(CCCN)C(=O)c1ccc(C)cc1` (stereo not shown) [Compound 11], less than 30 µM; as for `CCC(c1nc2nc3cc(Cl)ccc3cc2c(=O)n1Cc1ccccc1)N(CCCN)C(=O)c1ccc(C)cc1` (stereo not shown) [Compound 12], less than 30 µM.
Take `Cc1ccc(C(=O)N(CCCN)C(c2nc3c(oc4ccccc43)c(=O)n2Cc2ccccc2)C(C)C)cc1` (stereo not shown) [Compound 13]: the IC50 was less than 30 µM.
With `Cc1ccc(C(=O)N(CCCN)C(c2nc3c(oc4ccccc43)c(=O)n2Cc2ccc(Br)s2)C(C)C)cc1` (stereo not shown) [Compound 14] the figure was less than 30 µM; with `Cc1ccc(C(=O)N(CCCN)C(c2nc3c(oc4ccccc43)c(=O)n2Cc2cccs2)C(C)C)cc1` (stereo not shown) [Compound 15], less than 30 µM.
Regarding `Cc1ccc(C(=O)N(CCCN)C(c2nc3c(oc4ccccc43)c(=O)n2Cc2ccc(Cl)s2)C(C)C)cc1` (stereo not shown) [Compound 16], the IC50 was less than 30 µM.
In the case of `CCC(c1nc2c(oc3ccccc32)c(=O)n1Cc1ccccc1)N(CCCN)C(=O)c1ccc(C)cc1` (stereo not shown) [Compound 17], the IC50 is less than 30 µM.
Regarding `CCC(c1nc2c(oc3ccccc32)c(=O)n1Cc1ccccc1)N(CCCN(C)C)C(=O)c1ccc(C)cc1` (stereo not shown) [Compound 19], the IC50 was less than 30 µM.
As for `CCC(c1nc2c(oc3ccccc32)c(=O)n1Cc1ccccc1)N(CCCN(C)C)C(=O)c1ccc(Br)cc1` (stereo not shown) [Compound 20], the figure is less than 30 µM; as for `CCC(c1nc2c(oc3ccccc32)c(=O)n1Cc1ccccc1)N(CCN)C(=O)c1ccc(C)cc1` (stereo not shown) [Compound 21], less than 30 µM.
As to `CCC(c1nc2c(oc3ccccc32)c(=O)n1Cc1ccccc1)N(CCCCN)C(=O)c1ccc(C)cc1` (stereo not shown) [Compound 22], the IC50 was less than 30 µM.
Regarding `CCC(c1nc2c(oc3ccccc32)c(=O)n1Cc1ccccc1)N(CCN(C)C)C(=O)c1ccc(Br)cc1` (stereo not shown) [Compound 23], the IC50 is less than 30 µM.
As to `CCC(c1nc2c(oc3ccccc32)c(=O)n1Cc1ccccc1)N(CCCCN(C)C)C(=O)c1ccc(Br)cc1` (stereo not shown) [Compound 24], the IC50 is less than 30 µM.
On to `Cc1ccc(C(=O)N(CCN)C(c2nc3c(oc4ccccc43)c(=O)n2Cc2ccccc2)C(C)C)cc1` (stereo not shown) [Compound 25], for which the IC50 is less than 30 µM.
With `Cc1ccc(C(=O)N(NCCN)C(c2nc3c(oc4ccccc43)c(=O)n2Cc2ccccc2)C(C)C)cc1` (stereo not shown) [Compound 26] the figure was less than 30 µM.
As to `Cc1ccc(C(=O)N(CCCN)C(c2nc3c(oc4ccccc43)c(=O)n2Cc2ccccc2F)C(C)C)cc1` (stereo not shown) [Compound 27], the IC50 is less than 30 µM.
On to `CC(C)C(c1nc2c(oc3ccccc32)c(=O)n1Cc1ccccc1F)N(CCCN)C(=O)c1ccc(Br)cc1` (stereo not shown) [Compound 28], for which the IC50 is less than 30 µM.
As to `Cc1ccc(C(=O)N(CCCN)C(c2nc3c(oc4ccccc43)c(=O)n2Cc2ccccc2O)C(C)C)cc1` (stereo not shown) [Compound 29], the IC50 was less than 30 µM.
Regarding `Cc1ccc(C(=O)N(CCCN)C(c2nc3c(oc4ccc(C(F)(F)F)cc43)c(=O)n2Cc2ccccc2)C(C)C)cc1` (stereo not shown) [Compound 30], the IC50 is less than 30 µM.
For the compound `CCC(c1nc2c(oc3ccc(Cl)cc32)c(=O)n1Cc1ccccc1)N(CCCN)C(=O)c1ccc(C)cc1` (stereo not shown) [Compound 31], the IC50 was less than 30 µM.
In the case of `CCC(c1nc2c(oc3ccc(Cl)cc32)c(=O)n1Cc1ccccc1)N(CCN)C(=O)c1ccc(C)cc1` (stereo not shown) [Compound 32], the IC50 is less than 30 µM.
As to `CCC(c1nc2c(oc3ccc(Cl)cc32)c(=O)n1Cc1ccccc1)N(CCCN)S(=O)(=O)c1ccc(C)cc1` (stereo not shown) [Compound 33], the IC50 was less than 30 µM.
As for `CCC(c1nc2c(oc3ccc(Cl)cc32)c(=O)n1Cc1ccccc1)N(CCN)S(=O)(=O)c1ccc(C)cc1` (stereo not shown) [Compound 34], the 50% inhibitory concentration (IC50) is less than 30 µM.
On to `Cc1ccc(C(=O)N(CCCN)C(c2nc3c(oc4ccc(Cl)cc43)c(=O)n2Cc2ccccc2)C(C)C)cc1` (stereo not shown) [Compound 35], for which the IC50 was less than 30 µM.
Turning to `Cc1ccc(C(=O)N(CCN)C(c2nc3c(oc4ccc(Br)cc43)c(=O)n2Cc2ccccc2)C(C)C)cc1` (stereo not shown) [Compound 37], the half-inhibitory concentration (IC50) is less than 30 µM.
With `Cc1ccc(C(=O)N(CCCN)C(c2nc3c(oc4ccc(Br)cc43)c(=O)n2Cc2ccccc2)C(C)C)cc1` (stereo not shown) [Compound 38] the figure was less than 30 µM; with `Cc1ccc(C(=O)N(CCN)C(c2nc3c(oc4ccc(C)cc43)c(=O)n2Cc2ccccc2)C(C)C)cc1` (stereo not shown) [Compound 39], less than 30 µM.
As for `Cc1ccc(C(=O)N(CCCN)C(c2nc3c(oc4ccc(C)cc43)c(=O)n2Cc2ccccc2)C(C)C)cc1` (stereo not shown) [Compound 40], the figure is less than 30 µM; as for `Cc1ccc(C(=O)N(CCCN)C(c2nc3c(oc4ccc(Cl)cc43)c(=O)n2Cc2ccc(Br)s2)C(C)C)cc1` (stereo not shown) [Compound 41], less than 30 µM.
On to `Cc1ccc(C(=O)N(CCCN)C(c2nc3c(oc4ccc(Cl)cc43)c(=O)n2Cc2cccs2)C(C)C)cc1` (stereo not shown) [Compound 43], for which the IC50 is less than 30 µM.
Take `Cc1ccc(C(=O)N(CCN)C(c2nc3c(oc4ccc(Cl)cc43)c(=O)n2Cc2cccs2)C(C)C)cc1` (stereo not shown) [Compound 44]: the IC50 was less than 30 µM.
For `Cc1ccc(C(=O)N(CCCN)C(c2nc3c(oc4ccc(Cl)cc43)c(=O)n2Cc2ccc(Cl)s2)C(C)C)cc1` (stereo not shown) [Compound 45], the IC50 is less than 30 µM.
With `Cc1ccc(C(=O)N(CCN)C(c2nc3c(oc4ccc(Cl)cc43)c(=O)n2Cc2ccc(Cl)s2)C(C)C)cc1` (stereo not shown) [Compound 46], the IC50 was less than 30 µM.
For `Cc1ccc(C(=O)N(CCCN)C(c2nc3c(oc4ccc(Cl)cc43)c(=O)n2Cc2ccc(C#N)s2)C(C)C)cc1` (stereo not shown) [Compound 47], the IC50 is less than 30 µM.
In the case of `Cc1ccc(C(=O)N(CCN)C(c2nc3c(oc4ccc(Cl)cc43)c(=O)n2Cc2ccc(C#N)s2)C(C)C)cc1` (stereo not shown) [Compound 48], the IC50 was less than 30 µM.
Turning to `Cc1ccc(C(=O)N(CCN)C(c2nc3c(oc4ccc(Cl)cc43)c(=O)n2Cc2cc(Br)cs2)C(C)C)cc1` (stereo not shown) [Compound 49], the IC50 was less than 30 µM.
